Values quoted from earlier work, collected in article PMC4386841 (Journal of the American Chemical Society, 2015).
Like-named read-outs stand apart in the source and are kept apart here. One block for each molecule: values may come before it.

Ki (MIF; dopachrome assay): 38 nM
SMILES: O=c1c(-c2ccc(O)c(O)c2)coc2cc(O)ccc12 [Orita-13, 3-(3,4-dihydroxyphenyl)-7-hydroxy-4H-chromen-4-one]

Aqueous solubility, literature value: 5.9 µg/mL
SMILES: CN1C(C(=O)Nc2ccccn2)=C(O)c2ccccc2S1(=O)=O [Piroxicam]
